# From patent publication US20100267561A1, “HERBICIDAL PYRIDAZINONE DERIVATIVES” (priority 2007, published 2010)
# Legend:
# Assay type in all cases: in vivo
# [1] = test system: giant foxtail (Setaria faberi); experiment: Test A pre-/postemergence plant response
# Summary of the method: (§1)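 Ratings run 0–100 (100 = complete control), assigned visually against untreated controls roughly 10 days after treatment in a greenhouse. Compounds, formulated in non-phytotoxic solvent containing surfactant, were applied as a soil-directed preemergence spray and concurrently postemergence to one- to two-leaf plants 2–10 cm tall.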
# [2] = test system: velvetleaf (Abutilon theophrasti); experiment: Test A pre-/postemergence plant response
# Summary of the method: as §1
# [3] = test system: wheat (Triticum aestivum); experiment: Test A pre-/postemergence plant response
# Summary of the method: as §1
# [4] = test system: Italian ryegrass (Lolium multiflorum); experiment: Test C pre-/postemergence plant response
# Summary of the method: (§2)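 Ratings ran from 0 (no effect) to 100 (complete control) and were made visually against untreated controls 15–25 days after treatment in a controlled growth environment. Application was preemergence and, for some chemicals, postemergence at the 1- to 4-leaf stage (2–18 cm). Formulation was a non-phytotoxic solvent mixture with surfactant.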
# [5] = test system: annual bluegrass (Poa annua); experiment: Test C pre-/postemergence plant response
# Summary of the method: as §2
# [6] = test system: blackgrass (Alopecurus myosuroides); experiment: Test C pre-/postemergence plant response
# Summary of the method: as §2
# [7] = test system: canarygrass (Phalaris minor); experiment: Test C pre-/postemergence plant response; settings: Preemergence
# Summary of the method: as §2
# [8] = test system: green foxtail (Setaria viridis); experiment: Test C pre-/postemergence plant response
# Summary of the method: as §2
# [9] = test system: pigweed (Amaranthus retroflexus); experiment: Test C pre-/postemergence plant response
# Summary of the method: as §2
# [10] = test system: spring barley (Hordeum vulgare); experiment: Test C pre-/postemergence plant response
# Summary of the method: as §2
# [11] = test system: spring wheat (Triticum aestivum); experiment: Test C pre-/postemergence plant response
# Summary of the method: as §2
# [12] = test system: wild mustard (Sinapis arvensis); experiment: Test C pre-/postemergence plant response
# Summary of the method: as §2
# [13] = test system: windgrass (Apera spica-venti); experiment: Test C pre-/postemergence plant response
# Summary of the method: as §2
# [14] = test system: winter barley (Hordeum vulgare); experiment: Test C pre-/postemergence plant response
# Summary of the method: as §2
# [15] = test system: winter wheat (Triticum aestivum); experiment: Test C pre-/postemergence plant response
# Summary of the method: as §2
# [16] = Postemergence, 31 g ai/ha, 0 to 100 scale, 0 no effect, 100 complete control
# [17] = Postemergence, 125 g ai/ha, 0 to 100 scale, 0 no effect, 100 complete control
# [18] = Preemergence, 31 g ai/ha, 0 to 100 scale, 0 is no effect, 100 is complete control
# [19] = Preemergence, 125 g ai/ha, 0 to 100 scale (0 no effect, 100 complete control)
# [20] = Postemergence, 8 g ai/ha, scale 0 to 100, 0 no effect, 100 complete control
# [21] = Postemergence, 16 g ai/ha, scale 0 to 100, 0 no effect, 100 complete control
# [22] = Postemergence, 31 g ai/ha, scale 0 to 100, 0 no effect, 100 complete control
# [23] = Postemergence, 62 g ai/ha, scale 0 to 100, 0 no effect, 100 complete control
# [24] = Preemergence, 8 g ai/ha, scale 0 to 100 (0 no effect, 100 complete control)
# [25] = Preemergence, 16 g ai/ha, scale 0 to 100 (0 no effect, 100 complete control)
# [26] = Preemergence, 31 g ai/ha, scale 0 to 100 (0 no effect, 100 complete control)
# [27] = Preemergence, 62 g ai/ha, scale 0 to 100, 0 no effect, 100 complete control
smiles,measurement,setting,value
CCOC(=O)Oc1cnn(C)c(=O)c1-n1nc(-c2ccc(Cl)cc2)cc1C [Compound 53],"Plant response rating, Foxtail, Giant",[1]; [16],90
same,"Plant response rating, Foxtail, Giant",[1]; [17],100
same,"Plant response rating, Foxtail, Giant",[1]; [18],100
same,"Plant response rating, Foxtail, Giant",[1]; [19],100
same,"Plant response rating, Velvetleaf",[2]; [16],0
same,"Plant response rating, Velvetleaf",[2]; [17],0
same,"Plant response rating, Velvetleaf",[2]; [18],0
same,"Plant response rating, Velvetleaf",[2]; [19],0
same,"Plant response rating, Wheat",[3]; [16],20
same,"Plant response rating, Wheat",[3]; [17],70
same,"Plant response rating, Wheat",[3]; [18],50
same,"Plant response rating, Wheat",[3]; [19],90
same,"Plant response rating, Ryegrass, Italian",[4]; [20],75
same,"Plant response rating, Ryegrass, Italian",[4]; [21],100
same,"Plant response rating, Ryegrass, Italian",[4]; [22],100
same,"Plant response rating, Ryegrass, Italian",[4]; [23],100
same,"Plant response rating, Ryegrass, Italian",[4]; [24],25
same,"Plant response rating, Ryegrass, Italian",[4]; [25],100
same,"Plant response rating, Ryegrass, Italian",[4]; [26],100
same,"Plant response rating, Ryegrass, Italian",[4]; [27],100
same,"Plant response rating, Bluegrass",[5]; [20],0
same,"Plant response rating, Bluegrass",[5]; [21],0
same,"Plant response rating, Bluegrass",[5]; [22],0
same,"Plant response rating, Bluegrass",[5]; [23],35
same,"Plant response rating, Bluegrass",[5]; [24],0
same,"Plant response rating, Bluegrass",[5]; [25],20
same,"Plant response rating, Bluegrass",[5]; [26],40
same,"Plant response rating, Bluegrass",[5]; [27],65
same,"Plant response rating, Blackgrass",[6]; [20],65
same,"Plant response rating, Blackgrass",[6]; [21],100
same,"Plant response rating, Blackgrass",[6]; [22],100
same,"Plant response rating, Blackgrass",[6]; [23],100
same,"Plant response rating, Blackgrass",[6]; [24],70
same,"Plant response rating, Blackgrass",[6]; [25],75
same,"Plant response rating, Blackgrass",[6]; [26],98
same,"Plant response rating, Blackgrass",[6]; [27],98
same,"Plant response rating, Canarygrass","[7]; 8 g ai/ha, scale 0 to 100 (0 no effect, 100 complete control)",0
same,"Plant response rating, Canarygrass","[7]; 16 g ai/ha, scale 0 to 100 (0 no effect, 100 complete control)",0
same,"Plant response rating, Canarygrass","[7]; 31 g ai/ha, scale 0 to 100 (0 no effect, 100 complete control)",95
same,"Plant response rating, Canarygrass","[7]; 62 g ai/ha, scale 0 to 100, 0 no effect, 100 complete control",95
same,"Plant response rating, Foxtail, Green",[8]; [20],95
same,"Plant response rating, Foxtail, Green",[8]; [21],98
same,"Plant response rating, Foxtail, Green",[8]; [22],100
same,"Plant response rating, Foxtail, Green",[8]; [23],100
same,"Plant response rating, Foxtail, Green",[8]; [24],90
same,"Plant response rating, Foxtail, Green",[8]; [25],90
same,"Plant response rating, Foxtail, Green",[8]; [26],100
same,"Plant response rating, Foxtail, Green",[8]; [27],100
same,"Plant response rating, Pigweed",[9]; [20],0
same,"Plant response rating, Pigweed",[9]; [21],0
same,"Plant response rating, Pigweed",[9]; [22],0
same,"Plant response rating, Pigweed",[9]; [23],0
same,"Plant response rating, Pigweed",[9]; [24],0
same,"Plant response rating, Pigweed",[9]; [25],0
same,"Plant response rating, Pigweed",[9]; [26],0
same,"Plant response rating, Pigweed",[9]; [27],0
same,"Plant response rating, Barley, Spring",[10]; [20],0
same,"Plant response rating, Barley, Spring",[10]; [21],40
same,"Plant response rating, Barley, Spring",[10]; [22],40
same,"Plant response rating, Barley, Spring",[10]; [23],100
same,"Plant response rating, Barley, Spring",[10]; [24],0
same,"Plant response rating, Barley, Spring",[10]; [25],0
same,"Plant response rating, Barley, Spring",[10]; [26],40
same,"Plant response rating, Barley, Spring",[10]; [27],75
same,"Plant response rating, Wheat, Spring",[11]; [20],5
same,"Plant response rating, Wheat, Spring",[11]; [21],50
same,"Plant response rating, Wheat, Spring",[11]; [22],80
same,"Plant response rating, Wheat, Spring",[11]; [23],98
same,"Plant response rating, Wheat, Spring",[11]; [24],0
same,"Plant response rating, Wheat, Spring",[11]; [25],20
same,"Plant response rating, Wheat, Spring",[11]; [26],85
same,"Plant response rating, Wheat, Spring",[11]; [27],85
same,"Plant response rating, Mustard, Wild",[12]; [20],0
same,"Plant response rating, Mustard, Wild",[12]; [21],0
same,"Plant response rating, Mustard, Wild",[12]; [22],0
same,"Plant response rating, Mustard, Wild",[12]; [23],0
same,"Plant response rating, Mustard, Wild",[12]; [24],0
same,"Plant response rating, Mustard, Wild",[12]; [26],0
same,"Plant response rating, Mustard, Wild",[12]; [27],0
same,"Plant response rating, Windgrass",[13]; [20],0
same,"Plant response rating, Windgrass",[13]; [21],0
same,"Plant response rating, Windgrass",[13]; [22],50
same,"Plant response rating, Windgrass",[13]; [23],70
same,"Plant response rating, Windgrass",[13]; [24],0
same,"Plant response rating, Windgrass",[13]; [25],30
same,"Plant response rating, Windgrass",[13]; [26],75
same,"Plant response rating, Windgrass",[13]; [27],90
same,"Plant response rating, Barley, Winter",[14]; [20],0
same,"Plant response rating, Barley, Winter",[14]; [21],10
same,"Plant response rating, Barley, Winter",[14]; [22],40
same,"Plant response rating, Barley, Winter",[14]; [23],95
same,"Plant response rating, Barley, Winter",[14]; [24],0
same,"Plant response rating, Barley, Winter",[14]; [25],15
same,"Plant response rating, Barley, Winter",[14]; [26],50
same,"Plant response rating, Barley, Winter",[14]; [27],50
same,"Plant response rating, Wheat, Winter",[15]; [20],0
same,"Plant response rating, Wheat, Winter",[15]; [21],10
same,"Plant response rating, Wheat, Winter",[15]; [22],65
same,"Plant response rating, Wheat, Winter",[15]; [23],95
same,"Plant response rating, Wheat, Winter",[15]; [24],0
same,"Plant response rating, Wheat, Winter",[15]; [25],0
same,"Plant response rating, Wheat, Winter",[15]; [26],50
same,"Plant response rating, Wheat, Winter",[15]; [27],70
